From US11331333B2, “Treatment of aberrant fibroblast proliferation” (Georg August Universitaet Goettingen Stiftung Oeffentlichen …, priority 2019, dated 2022)

Columns and labels:
[1] = test system: EYA1A^tg mice challenged with UUO; assay: Unilateral ureteral obstruction (UUO) kidney fibrosis in EYA1A^tg mice; type: in vivo, mouse
Experimental: From 3 days before surgery, C57BL/6 (referred as wildtype) or transgenic mice overexpressing human splice variants EYA1A (rtTACMV;hEYA1A-pTreTight, referred to as EYA1A^tg) and EYA1C (rtTACMV;hEYA1C-pTreTight, referred to as EYA1C^tg) were treated with either vehicle buffer (glucose 5%) or DOX (2 mg/ml, Sigma, St. Louis, USA) within drinking water ad libidum and renewal every 2 days.
Mice were anesthetized with isoflurane inhalation (2-3%), analgesia was performed by subcutaneous injection of 0.1 mg/kg body weight per day Buprenorphine. The ureter was separated from the surrounding tissues and two ligatures were placed about 5 mm apart in upper two-thirds of the left ureter to obtain reliable obstruction. Mice were sacrificed 3, 7 or 10 days after ureteral obstruction for further analyses.
Mice were injected intraperitoneally with Na3VO4 (8 mg/kg i.p. once per day, Sigma, St. Louis, USA) or caffeine (12.5 mg/kg i.p. once per day, Sigma, St. Louis, USA) starting one day prior of surgery, control mice received equivalent volume of PBS or DMSO.
Mice were injected intraperitoneally with SCR7 (20 mg/kg i.p. every alternate day, Sigma, St. Louis, USA) starting one day prior of surgery, control mice received equivalent volume of DMSO.
The inventors obtained 25 nucleotide antisense morpholino sequences (Gene Tools, Philomath, USA). The in vivo morpholinos contain a covalently linked octaguanidine dendrimer as a delivery moiety to facilitate entry into cells in vivo. Mice were injected intraperitoneally with 12.5 mg/kg body weight in vivo morpholinos in saline at a final volume of 100 μL every other day starting two days prior of surgery. A control in vivo
Lentiviral pLenti-Sce1 was produced in 293T virus packaging cells after transfection using morpholino that targets a human β-globin intron mutation was used as standard control. In vivo morpholino sequences are those of SEQ ID NOs: 9 (EYA1A-VMO), 10 (53Bp1-VMO) and 16 (control).
Formalin-fixed, paraffin-embedded kidneys and hearts from mice, and HOPE-fixed, paraffin-embedded human specimens were sectioned at 3 μm, Masson's Trichrome Stain (MTS) was performed at the University Medicine Göttingen. For morphometric analysis of interstitial fibrosis in mice and human biopsies, we assessed the fibrotic area using cellSens (Olympus, Tokyo, Japan) software. Ten visual fields were selected randomly for each MTS stained section at 200× magnification and the relative interstitial fibrotic area was evaluated by using a 10 mm^2 graticule.
Formalin-fixed, paraffin-embedded kidney sections from mice as well as from HOPE-fixed, paraffin-embedded human specimens were deparaffinized in xylene and rehydrated in ethanol containing distilled water. For immunofluorescent staining, EYA1 isoform antisera or primary antibodies against αSMA (A5228, Sigma, St. Louis, USA), Collagen-1 (ab34710, Abcam Biochemicals, Cambridge, UK), γH2A.X^pS139 (ab2893, Abcam Biochemicals, Cambridge, UK), γH2A.X^pS139 (05-636, Merck Millipore, Billerica, UK), γH2A.X^pY142 (ab94602, Abcam Biochemicals, Cambridge, UK), p-Chk1^pS317 (12302P, Cell Signaling, Danvers, USA), p-Chk2^pT68 (2197S, Cell Signaling, Danvers, USA), Rpa1 (2267S, Cell Signaling, Danvers, USA), Rad51 (sc-8349, Santa Cruz Biotechnology, Dallas, USA), 53Bp1 (sc-22760, Santa Cruz Biotechnology, Dallas, USA), Xrcc4 (sc-8285, Santa Cruz Biotechnology, Dallas, USA) and GFP (MA5-15256, Thermo Fisher Scientific, Waltham, USA) were used, secondary antibodies were labeled with Alexa Fluor 488, 594 or 647 (Life Technologies, Carlsbad, USA). Renal basement membranes were stained with antibodies against Collagen-4 (1340-30, SouthernBiotech, Birmingham, USA). Nuclear staining was performed using 4′,6-diamidino-2-phenylindole (DAPI, Vector Laboratories, Burlingame, USA). Quantifications were performed per high power field at 400× magnification, representative confocal pictures using an LSM 780 confocal laser scanning microscope (Zeiss, Oberkochen, Germany) are shown.

EYA1A = biological target: T1, EYA1A (Homo sapiens, UniProt Q99502); assay: Screen of NCI Mechanistic Set II for EYA1A phosphatase activity with pNPP substrate; type: biochemical; conditions: transgenic fibroblasts, compared to control cultures
T1 construct: expressed in transfected cells; host or cells: transgenic fibroblasts
T1 sequence (Q99502 1-559 isoform Q99502-2): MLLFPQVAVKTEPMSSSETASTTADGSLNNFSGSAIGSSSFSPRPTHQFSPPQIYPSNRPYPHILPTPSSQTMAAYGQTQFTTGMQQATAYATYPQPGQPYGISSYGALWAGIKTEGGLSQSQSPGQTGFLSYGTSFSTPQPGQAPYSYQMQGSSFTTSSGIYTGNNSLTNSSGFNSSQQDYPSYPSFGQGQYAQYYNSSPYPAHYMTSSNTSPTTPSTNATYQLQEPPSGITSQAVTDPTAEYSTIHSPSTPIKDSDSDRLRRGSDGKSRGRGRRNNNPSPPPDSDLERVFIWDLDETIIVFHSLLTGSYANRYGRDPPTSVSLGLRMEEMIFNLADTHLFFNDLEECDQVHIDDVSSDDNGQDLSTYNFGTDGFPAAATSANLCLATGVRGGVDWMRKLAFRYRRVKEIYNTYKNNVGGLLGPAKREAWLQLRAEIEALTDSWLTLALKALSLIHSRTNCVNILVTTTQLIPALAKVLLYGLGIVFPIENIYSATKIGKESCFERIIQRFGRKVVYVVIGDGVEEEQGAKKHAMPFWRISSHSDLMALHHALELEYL
Experimental: FIG. 14 illustrates results of a screen for additional compounds for selective modulation of EYA1A phosphatase activity. The EYA1A phosphatase activity was estimated using p-nitrophenyl phosphate (pNPP) substrate. Briefly, phosphatase activity was determined in transgenic fibroblasts and pNP production was determined in comparison to control cultures. Among 736 compounds contained in the NCI mechanistic set (NCI Mechanistic Set II), 228 inhibitors of EYA1A phosphatase activity were identified.
With regard to modulators of the phosphotyrosine phosphatase activity of EYA1, the inventors screened a small molecule library, namely the NCI “Mechanistic Set II library”, obtained from the open chemical repository of the Developmental Therapeutics Program (DTP) of the National Cancer Institute, illustrated by FIG. 14.
p-Nitrophenyl Phosphate (PNPP) is a non-proteinaceous, non-specific substrate used in the art to assay protein, alkaline and acid phosphatases. The PNPP phosphatase activity is measured using a continuous or single-point spectrophotometric assay based on the ability of phosphatases to catalyze the hydrolysis of PNPP to p-nitrophenol, a chromogenic product with absorbance at 405 nm. Any available protocol can be followed to determine phosphatase activity using pNPP.

[2] = in vivo morpholino 12.5 mg/kg i.p. every other day, EYA1A^tg mice, UUO, 10 days
[3] = SCR7 20 mg/kg i.p. every alternate day, EYA1A overexpressing mice, 10 days after ureteral obstruction

Row | Compound | EYA1A phosphatase activity (EYA1A) | further results
1 | 53Bp1-VMO: in vivo morpholino, SEQ ID NO: 10, with covalently linked octaguanidine dendrimer, blocking 53Bp1 translation (TCCATCTGCTCCCCTGGCATCC; all phosphorodiamidate morpholino (PMO); octaguanidine dendrimer covalently linked, position not given here, further chemistry not fully specified) |  | presence of Rpa1 (indicative of HR) ([1]; in vivo morpholino 12.5 mg/kg i.p. every other day, EYA1A-overexpressing mice, UUO): increased presence of Rpa1; 53Bp1 within chronically injured kidneys ([1]; in vivo morpholino 12.5 mg/kg i.p. every other day, EYA1A^tg mice, UUO): Depletion of 53Bp1; fibroblast accumulation [1, 2]: attenuated; renal fibrosis [1, 2]: attenuated
2 | Hexapotassium hexatriaconta-p-oxooctadecaoxobis [μ9-[phosphato(3-)-κO:κO:κO:κO′:κO′:κO″:κO″:κO′″:κO′″]]octadeca-molybdate(6-) [NSC No. 622124] | Strong inhibitors | 
3 | O=C1C(c2cnc3ccccc3n2)=C(O)c2ccccc21 [NSC No. 634224, 3-hydroxy-2-(2-quinoxalinyl)-1-indenone] | Strong inducers | 
4 | COc1cc2cc3c4cc(OC)c(OC)cc4cc[n+]3c(C)c2cc1OC.O=C([O-])CS(=O)(=O)O [NSC No. 154890, Dibenzo(a,g)quinolizinium, 2,3,10,11-tetramethoxy-8-methyl-sulfoacetate] | Strong inhibitors | 
5 | O=c1[nH]c(=S)[nH]c(N=Cc2ccccc2)c1N=Cc1ccccc1 [SCR7] |  | fibroblast accumulation [1, 3]: significantly reduced; fibrosis [1, 3]: significantly reduced
6 | O=C1C=C(Nc2ccccc2C(=O)CC(=O)C(=O)Nc2ccc(Cl)cc2)c2ccccc2C1=O [NSC No. 641253] | Strong inhibitors | 
7 | Cc1c2ccncc2cc2c1[nH]c1ccccc12 [NSC 87206, 5-Methyl-6H-pyrido(4,3-b)carbazole] | Strong inhibitors | 
8 | EYA1A-VMO: in vivo morpholino, SEQ ID NO: 9, with covalently linked octaguanidine dendrimer, specifically inhibiting EYA1A translation (CTGCAACTTGAGGAAACAGCAACAT; all phosphorodiamidate morpholino (PMO); octaguanidine dendrimer covalently linked, position not given here, further chemistry not fully specified) |  | pro-fibrotic effects ([1]; in vivo morpholino 12.5 mg/kg i.p. every other day, EYA1A overexpressing mice, 10 days after ureteral obstruction): reversed pro-fibrotic effects
9 | [Mo12O36(PO4)] disodium salt [NSC No. 622116] | Strong inhibitors | 
10 | CN(C)c1cccc(/C=C(\C#N)c2ccccc2)c1 [NSC No. 667251, (Z)-3-[3-(dimethylamino)phenyl]-2-phenylprop-2-enenitrile] | Strong inducers | 
11 | O=c1ccc(-c2ccccc2)nn1-c1nc2ccccc2s1 [NSC No. 629659, 2-(2-benzothiazolyl)-6-phenyl-3(2H)-pyridazinone] | Strong inducers | 
12 | N#CC(=C1C=CC(=NO)C=C1)c1ccc(Cl)cc1 [NSC No. 405158, alpha-(p-chlorophenyl)-4-oxo-2,5-cyclohexadiene-δ1,α-acetonitrile oxime] | Strong inducers | 
